Test results published in ChEMBL document CHEMBL4321837, “Discovery of Potent and Orally Effective Dual Janus Kinase 2/FLT3 Inhibitors for the Treatment of Acute Myelogenous Leukemia and Myeloproliferative Neoplasms” (J Med Chem, 2019).

Columns and labels:
[1] = Anti-myelofibrosis activity against mouse BAF3(transformed) cells harboring with JAK2 V617F mutant allografted in NOD/SCID mouse assessed as reduction in spleen weight at 60 mg/kg, po qd for 20 days measured on day 25 relative to control; assay type: functional
[2] = target: T1, Tyrosine-protein kinase JAK1 (Homo sapiens, UniProt P23458); test: Inhibition of human JAK1 (866 to end residues) assessed as residual activity at 100 nM using GEEPLYWSFPAKK as substrate after 40 mins in presence of [gamma33P]-ATP by scintillation counting based radiometric assay relative to control
T1 sequence (P23458 whole entry): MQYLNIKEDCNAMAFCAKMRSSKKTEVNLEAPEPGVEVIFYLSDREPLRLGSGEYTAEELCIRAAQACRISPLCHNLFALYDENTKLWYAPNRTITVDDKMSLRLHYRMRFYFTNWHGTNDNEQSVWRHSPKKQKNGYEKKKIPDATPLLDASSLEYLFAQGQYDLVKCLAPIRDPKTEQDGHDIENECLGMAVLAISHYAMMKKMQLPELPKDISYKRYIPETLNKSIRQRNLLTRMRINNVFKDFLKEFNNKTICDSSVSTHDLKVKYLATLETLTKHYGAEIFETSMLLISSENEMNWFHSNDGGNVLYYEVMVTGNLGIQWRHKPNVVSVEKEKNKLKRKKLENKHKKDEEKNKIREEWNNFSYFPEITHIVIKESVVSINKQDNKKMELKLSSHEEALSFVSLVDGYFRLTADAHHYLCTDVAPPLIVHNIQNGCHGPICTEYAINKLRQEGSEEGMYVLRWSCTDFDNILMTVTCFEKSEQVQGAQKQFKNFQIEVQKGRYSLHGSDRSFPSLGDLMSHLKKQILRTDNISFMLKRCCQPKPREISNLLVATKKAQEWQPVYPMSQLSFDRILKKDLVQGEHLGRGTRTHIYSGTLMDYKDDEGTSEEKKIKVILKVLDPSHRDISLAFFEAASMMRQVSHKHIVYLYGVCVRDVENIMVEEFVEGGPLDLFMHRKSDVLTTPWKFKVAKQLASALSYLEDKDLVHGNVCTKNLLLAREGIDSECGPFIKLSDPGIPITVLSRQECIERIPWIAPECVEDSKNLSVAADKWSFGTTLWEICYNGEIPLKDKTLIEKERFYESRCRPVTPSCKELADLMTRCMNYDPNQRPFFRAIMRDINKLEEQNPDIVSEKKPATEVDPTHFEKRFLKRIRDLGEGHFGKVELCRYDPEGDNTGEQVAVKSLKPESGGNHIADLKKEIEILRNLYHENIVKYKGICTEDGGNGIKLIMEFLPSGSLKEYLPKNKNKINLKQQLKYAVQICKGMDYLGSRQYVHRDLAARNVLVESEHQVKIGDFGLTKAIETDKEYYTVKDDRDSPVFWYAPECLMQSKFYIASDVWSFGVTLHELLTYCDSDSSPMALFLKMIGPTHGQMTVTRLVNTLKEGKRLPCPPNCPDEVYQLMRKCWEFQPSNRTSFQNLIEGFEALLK

[3] = target: T2, Tyrosine-protein kinase JAK3 (Homo sapiens) (UniProt P52333); test: Inhibition of human JAK3 (781 to end residues) assessed as residual activity at 100 nM using GGEEEEYFELVKK as substrate after 40 mins in presence of [gamma33P]-ATP by scintillation counting based radiometric assay relative to control
T2 sequence (whole entry): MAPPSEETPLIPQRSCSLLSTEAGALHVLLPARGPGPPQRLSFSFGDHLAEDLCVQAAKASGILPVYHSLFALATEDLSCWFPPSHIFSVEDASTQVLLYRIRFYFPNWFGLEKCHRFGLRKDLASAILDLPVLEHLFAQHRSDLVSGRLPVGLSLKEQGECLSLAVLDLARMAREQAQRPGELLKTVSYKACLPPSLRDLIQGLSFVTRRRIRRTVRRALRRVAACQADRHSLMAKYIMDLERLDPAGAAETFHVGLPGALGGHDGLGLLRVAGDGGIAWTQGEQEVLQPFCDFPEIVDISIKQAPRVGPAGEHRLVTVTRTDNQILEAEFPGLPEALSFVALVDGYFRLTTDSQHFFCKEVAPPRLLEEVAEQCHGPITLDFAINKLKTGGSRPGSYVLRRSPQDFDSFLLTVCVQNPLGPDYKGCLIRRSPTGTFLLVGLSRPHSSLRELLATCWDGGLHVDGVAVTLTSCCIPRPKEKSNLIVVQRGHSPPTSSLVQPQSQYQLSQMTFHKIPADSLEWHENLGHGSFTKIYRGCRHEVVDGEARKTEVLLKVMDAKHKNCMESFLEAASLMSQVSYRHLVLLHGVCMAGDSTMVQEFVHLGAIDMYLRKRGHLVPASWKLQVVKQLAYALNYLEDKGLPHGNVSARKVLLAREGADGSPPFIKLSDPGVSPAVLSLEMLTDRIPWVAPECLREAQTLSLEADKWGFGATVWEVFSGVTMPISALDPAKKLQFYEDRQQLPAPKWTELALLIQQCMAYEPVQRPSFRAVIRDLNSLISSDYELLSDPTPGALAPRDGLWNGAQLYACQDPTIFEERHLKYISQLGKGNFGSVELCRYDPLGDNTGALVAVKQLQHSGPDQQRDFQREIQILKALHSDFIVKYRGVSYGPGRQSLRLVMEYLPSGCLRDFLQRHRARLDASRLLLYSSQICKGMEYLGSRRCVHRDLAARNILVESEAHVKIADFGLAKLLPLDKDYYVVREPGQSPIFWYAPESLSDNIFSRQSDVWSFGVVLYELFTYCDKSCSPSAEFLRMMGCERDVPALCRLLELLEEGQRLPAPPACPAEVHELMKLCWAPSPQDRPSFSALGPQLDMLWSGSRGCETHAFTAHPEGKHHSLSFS

[4] = target: Vascular endothelial growth factor receptor 3 (Homo sapiens, UniProt P35916); test: Inhibition of recombinant human FLT4 (800 to 1297 residues) using poly(Glu:Tyr) as substrate incubated for 30 mins in presence of [gamma33P]-ATP by scintillation counting based radiometry assay
Chain of Vascular endothelial growth factor receptor 3 (P35916 whole entry, the tested form may be a part): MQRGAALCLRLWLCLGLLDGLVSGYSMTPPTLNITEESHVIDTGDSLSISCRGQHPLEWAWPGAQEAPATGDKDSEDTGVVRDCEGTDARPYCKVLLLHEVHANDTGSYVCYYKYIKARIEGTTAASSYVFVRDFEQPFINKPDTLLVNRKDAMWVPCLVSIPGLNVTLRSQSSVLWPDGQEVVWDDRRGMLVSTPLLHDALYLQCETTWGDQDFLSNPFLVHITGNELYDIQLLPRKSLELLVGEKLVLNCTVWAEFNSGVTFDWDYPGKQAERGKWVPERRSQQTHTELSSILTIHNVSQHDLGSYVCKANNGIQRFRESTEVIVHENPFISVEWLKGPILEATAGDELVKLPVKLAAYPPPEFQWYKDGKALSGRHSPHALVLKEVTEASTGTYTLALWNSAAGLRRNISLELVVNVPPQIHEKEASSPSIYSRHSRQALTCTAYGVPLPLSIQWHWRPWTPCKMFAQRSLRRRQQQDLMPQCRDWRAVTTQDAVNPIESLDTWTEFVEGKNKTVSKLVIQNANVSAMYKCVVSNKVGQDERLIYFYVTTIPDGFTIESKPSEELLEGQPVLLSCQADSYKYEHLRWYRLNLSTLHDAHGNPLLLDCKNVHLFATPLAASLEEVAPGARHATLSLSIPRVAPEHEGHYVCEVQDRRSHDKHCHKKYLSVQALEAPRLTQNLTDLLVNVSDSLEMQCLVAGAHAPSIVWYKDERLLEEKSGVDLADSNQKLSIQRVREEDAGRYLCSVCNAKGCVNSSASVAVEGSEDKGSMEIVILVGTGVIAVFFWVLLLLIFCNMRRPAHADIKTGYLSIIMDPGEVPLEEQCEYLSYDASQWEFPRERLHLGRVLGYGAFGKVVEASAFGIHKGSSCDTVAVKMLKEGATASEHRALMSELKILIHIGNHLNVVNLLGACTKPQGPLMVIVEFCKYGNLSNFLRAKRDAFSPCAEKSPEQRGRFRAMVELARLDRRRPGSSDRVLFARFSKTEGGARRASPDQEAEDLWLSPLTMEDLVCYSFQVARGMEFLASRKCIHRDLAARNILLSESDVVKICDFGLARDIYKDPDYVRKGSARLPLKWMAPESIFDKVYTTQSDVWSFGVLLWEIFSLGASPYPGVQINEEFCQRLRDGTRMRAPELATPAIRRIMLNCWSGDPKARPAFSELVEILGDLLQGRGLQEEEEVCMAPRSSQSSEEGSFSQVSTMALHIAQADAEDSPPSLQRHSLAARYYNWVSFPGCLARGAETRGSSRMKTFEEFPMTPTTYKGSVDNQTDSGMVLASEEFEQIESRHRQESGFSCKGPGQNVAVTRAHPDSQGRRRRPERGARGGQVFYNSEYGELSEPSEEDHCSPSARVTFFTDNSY

[5] = target: Voltage-gated inwardly rectifying potassium channel KCNH2 (Homo sapiens, UniProt Q12809); test: Inhibition of human ERG
Chain of Voltage-gated inwardly rectifying potassium channel KCNH2 (Q12809 whole entry): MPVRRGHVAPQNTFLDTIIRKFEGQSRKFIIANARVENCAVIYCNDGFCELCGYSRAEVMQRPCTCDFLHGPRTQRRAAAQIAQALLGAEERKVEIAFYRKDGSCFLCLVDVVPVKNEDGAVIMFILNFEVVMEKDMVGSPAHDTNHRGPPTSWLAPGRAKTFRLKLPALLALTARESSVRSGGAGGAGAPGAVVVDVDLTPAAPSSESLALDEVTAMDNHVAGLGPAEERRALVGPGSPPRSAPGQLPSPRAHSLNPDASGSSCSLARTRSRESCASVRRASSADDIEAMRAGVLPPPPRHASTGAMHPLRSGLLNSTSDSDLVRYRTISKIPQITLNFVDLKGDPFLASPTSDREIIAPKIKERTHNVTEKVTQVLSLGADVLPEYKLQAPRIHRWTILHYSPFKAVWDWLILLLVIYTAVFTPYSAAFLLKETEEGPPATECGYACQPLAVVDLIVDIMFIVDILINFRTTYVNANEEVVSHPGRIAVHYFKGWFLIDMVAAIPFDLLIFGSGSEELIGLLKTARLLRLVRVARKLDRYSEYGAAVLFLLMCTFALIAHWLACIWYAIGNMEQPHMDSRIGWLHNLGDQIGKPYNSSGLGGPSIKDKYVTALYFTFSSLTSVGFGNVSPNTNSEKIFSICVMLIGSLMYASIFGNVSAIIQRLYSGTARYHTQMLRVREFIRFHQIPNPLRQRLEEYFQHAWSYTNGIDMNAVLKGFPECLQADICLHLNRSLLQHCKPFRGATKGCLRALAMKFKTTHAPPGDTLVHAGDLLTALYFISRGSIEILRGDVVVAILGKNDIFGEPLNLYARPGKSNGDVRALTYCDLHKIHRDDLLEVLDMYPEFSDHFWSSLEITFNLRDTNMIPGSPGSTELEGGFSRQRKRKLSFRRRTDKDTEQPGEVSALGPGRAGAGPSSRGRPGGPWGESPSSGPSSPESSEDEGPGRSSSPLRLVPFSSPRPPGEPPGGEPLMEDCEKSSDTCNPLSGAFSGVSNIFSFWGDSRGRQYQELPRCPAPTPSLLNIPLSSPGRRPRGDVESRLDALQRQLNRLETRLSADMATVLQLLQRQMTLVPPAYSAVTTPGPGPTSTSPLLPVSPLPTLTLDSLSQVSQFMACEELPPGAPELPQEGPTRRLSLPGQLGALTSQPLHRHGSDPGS

HUVEC = test: Cytotoxicity against HUVEC assessed as cell viability after 72 hrs by MTT assay; assay type: cell-based; conditions: human
[6] = target: T1, Tyrosine-protein kinase JAK1; test: Inhibition of JAK1 in human PBMC cells assessed as reduction in IL-6-induced STAT3 phosphorylation by flow cytometry; assay type: cell-based
Cytochrome P450 2C9 = Cytochrome P450 2C9 (Homo sapiens, UniProt P11712); test: Inhibition of CYP2C9 (unknown origin); assay type: ADME
Chain of Cytochrome P450 2C9 (P11712 whole entry): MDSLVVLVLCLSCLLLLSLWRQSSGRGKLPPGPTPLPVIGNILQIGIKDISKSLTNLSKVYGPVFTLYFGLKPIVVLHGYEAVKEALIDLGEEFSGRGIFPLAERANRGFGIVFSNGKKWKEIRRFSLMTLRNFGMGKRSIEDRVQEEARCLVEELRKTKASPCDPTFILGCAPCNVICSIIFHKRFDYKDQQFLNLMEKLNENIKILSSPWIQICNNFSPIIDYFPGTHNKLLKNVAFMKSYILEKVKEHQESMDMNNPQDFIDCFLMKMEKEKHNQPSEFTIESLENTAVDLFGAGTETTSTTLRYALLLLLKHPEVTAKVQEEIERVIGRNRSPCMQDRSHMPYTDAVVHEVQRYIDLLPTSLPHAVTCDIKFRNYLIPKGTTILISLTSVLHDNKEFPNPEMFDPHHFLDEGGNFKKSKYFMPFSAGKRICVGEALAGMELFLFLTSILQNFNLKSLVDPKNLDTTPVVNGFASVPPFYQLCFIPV

Cytochrome P450 2C19 = Cytochrome P450 2C19 (Homo sapiens, UniProt P33261); test: Inhibition of CYP2C19 (unknown origin); assay type: ADME
Chain of Cytochrome P450 2C19 (P33261 whole entry): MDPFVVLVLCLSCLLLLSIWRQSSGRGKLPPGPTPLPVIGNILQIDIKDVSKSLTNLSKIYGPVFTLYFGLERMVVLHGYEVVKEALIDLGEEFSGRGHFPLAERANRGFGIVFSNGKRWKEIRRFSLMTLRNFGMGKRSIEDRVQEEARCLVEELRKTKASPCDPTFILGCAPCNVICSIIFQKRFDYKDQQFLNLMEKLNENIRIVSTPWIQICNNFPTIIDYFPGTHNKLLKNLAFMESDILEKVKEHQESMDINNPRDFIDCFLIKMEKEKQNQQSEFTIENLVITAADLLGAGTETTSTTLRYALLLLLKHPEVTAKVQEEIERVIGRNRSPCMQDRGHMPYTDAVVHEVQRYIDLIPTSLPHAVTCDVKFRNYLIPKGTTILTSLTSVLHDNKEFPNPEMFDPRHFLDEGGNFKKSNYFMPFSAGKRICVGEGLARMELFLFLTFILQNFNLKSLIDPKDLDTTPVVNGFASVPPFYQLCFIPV

[7] = Half life in human liver microsomes; assay type: ADME, Microsome
[8] = Half life in mouse liver microsomes; assay type: ADME, Microsome
[9] = Intrinsic clearance in rat liver microsomes; assay type: ADME, Microsome
[10] = Intrinsic clearance in dog liver microsomes; assay type: ADME, Canis lupus familiaris, Microsome
[11] = Intrinsic clearance in mouse liver microsomes; assay type: ADME, Microsome
MV4-11 [12] = test: Induction of cell cycle arrest in human MV4-11 cells assessed as accumulation at S phase at 0.005 uM after 24 hrs by propidium iodide staining based flow cytometry analysis (reference value: 30.11%); assay type: functional
MV4-11 [13] = test: Induction of cell cycle arrest in human MV4-11 cells assessed as accumulation at G2/M phase at 0.05 uM after 24 hrs by propidium iodide staining based flow cytometry analysis (reference value: 15.4%); assay type: functional
MV4-11 [14] = test: Induction of cell cycle arrest in human MV4-11 cells assessed as accumulation at G2/M phase at 0.1 uM after 24 hrs by propidium iodide staining based flow cytometry analysis (reference value: 15.4%); assay type: functional
MV4-11 [15] = test: Induction of apoptosis in human MV4-11 cells assessed as viable cells at 0.05 uM after 24 hrs by Annexin V FITC/PI staining based flow cytometry analysis (reference value: 96.3%); assay type: functional; conditions: MV4-11, 24 h, read-out: Activity
MV4-11 [16] = test: Induction of apoptosis in human MV4-11 cells assessed as viable cells at 0.2 uM after 24 hrs by Annexin V FITC/PI staining based flow cytometry analysis (reference value: 96.3%); assay type: functional; conditions: MV4-11, 24 h, read-out: Activity
MV4-11 [17] = test: Induction of apoptosis in human MV4-11 cells assessed as viable cells at 0.4 uM after 24 hrs by Annexin V FITC/PI staining based flow cytometry analysis (reference value: 96.3%); assay type: functional; conditions: MV4-11, 24 h, read-out: Activity
MV4-11 [18] = test: Induction of apoptosis in human MV4-11 cells assessed as early apoptotic cells at 0.4 uM after 24 hrs by Annexin V FITC/PI staining based flow cytometry analysis (reference value: 2.14%); assay type: functional
MV4-11 [19] = test: Induction of apoptosis in human MV4-11 cells assessed as late apoptotic cells at 0.4 uM after 24 hrs by Annexin V FITC/PI staining based flow cytometry analysis (reference value: 1.38%); assay type: functional
MV4-11 [20] = test: Induction of apoptosis in human MV4-11 cells assessed as necrotic cells at 0.4 uM after 24 hrs by Annexin V FITC/PI staining based flow cytometry analysis (reference value: 0.18%); assay type: functional
[21] = Toxicity in NOD/SCID mouse xenografted with human SET2 cells overexpressing JAK2 V617F mutant assessed as animal survival at 30 to 60 mg/kg, po qd for 18 days; assay type: organism-based; conditions: in vivo
[22] = Toxicity in NOD/SCID mouse xenografted with FLT3-ITD-positive human MV4-11 cells assessed as body weight at 30 to 60 mg/kg, po qd for 14 days; assay type: organism-based; conditions: in vivo, 336 h

## Cc1cnc(Nc2ccc(N3CCC(N(C)CCO)CC3)c(F)c2)nc1-c1cnn(C(C)C)c1
[1]
  inhibition in vivo at 60 mg/kg: 59.5%
[2]
  Activity: 25%
[3]
  Activity: 36%
[4]
  IC50: 0.008 µM
[5]
  IC50: 28 µM
HUVEC
  Activity: Non-Toxic
[6]
  IC50: 0.0942 µM
Cytochrome P450 2C9
  IC50: 78.1 µM
Cytochrome P450 2C19
  IC50: 74.7 µM
[7]
  half-life: 4.81 h
[8]
  half-life: 6.42 h
[9]
  CLH: 0.9 µL/min/mg
[10]
  CLH: 3.7 µL/min/mg
[11]
  CLH: 1.8 µL/min/mg
MV4-11 [12]
  Activity: 28.22%
MV4-11 [13]
  Activity: 5.51%
MV4-11 [14]
  Activity: 5.04%
MV4-11 [15]
  viability at 0.05 µM: 89.6%
MV4-11 [16]
  viability at 0.2 µM: 77.4%
MV4-11 [17]
  viability at 0.4 µM: 51.2%
MV4-11 [18]
  Activity: 21.2%
MV4-11 [19]
  Activity: 26.5%
MV4-11 [20]
  Activity: 1.04%
[21]
  survival at 432 h: 100%
[22]
  Activity: Non-Toxic
